Patent publication US11407754B2, “Substituted piperidines as kinase inhibitors” (Daewoong Pharmaceutical Co., Ltd., priority 2017, dated 2022)

Columns and labels:
human BTK = human BTK (Homo sapiens (Human), UniProt Q06187); experiment: BTK kinase inhibitory activity, ADP Glo assay; details: read-out: BTK IC50, recombinant human BTK, ATP 10 uM
human JAK3 = human JAK3 (Homo sapiens (Human), UniProt P52333); experiment: JAK3 kinase inhibitory activity, ADP Glo assay; details: read-out: JAK3 IC50, recombinant human JAK3, ATP 5 uM
Chain of human JAK3 (P52333 whole entry): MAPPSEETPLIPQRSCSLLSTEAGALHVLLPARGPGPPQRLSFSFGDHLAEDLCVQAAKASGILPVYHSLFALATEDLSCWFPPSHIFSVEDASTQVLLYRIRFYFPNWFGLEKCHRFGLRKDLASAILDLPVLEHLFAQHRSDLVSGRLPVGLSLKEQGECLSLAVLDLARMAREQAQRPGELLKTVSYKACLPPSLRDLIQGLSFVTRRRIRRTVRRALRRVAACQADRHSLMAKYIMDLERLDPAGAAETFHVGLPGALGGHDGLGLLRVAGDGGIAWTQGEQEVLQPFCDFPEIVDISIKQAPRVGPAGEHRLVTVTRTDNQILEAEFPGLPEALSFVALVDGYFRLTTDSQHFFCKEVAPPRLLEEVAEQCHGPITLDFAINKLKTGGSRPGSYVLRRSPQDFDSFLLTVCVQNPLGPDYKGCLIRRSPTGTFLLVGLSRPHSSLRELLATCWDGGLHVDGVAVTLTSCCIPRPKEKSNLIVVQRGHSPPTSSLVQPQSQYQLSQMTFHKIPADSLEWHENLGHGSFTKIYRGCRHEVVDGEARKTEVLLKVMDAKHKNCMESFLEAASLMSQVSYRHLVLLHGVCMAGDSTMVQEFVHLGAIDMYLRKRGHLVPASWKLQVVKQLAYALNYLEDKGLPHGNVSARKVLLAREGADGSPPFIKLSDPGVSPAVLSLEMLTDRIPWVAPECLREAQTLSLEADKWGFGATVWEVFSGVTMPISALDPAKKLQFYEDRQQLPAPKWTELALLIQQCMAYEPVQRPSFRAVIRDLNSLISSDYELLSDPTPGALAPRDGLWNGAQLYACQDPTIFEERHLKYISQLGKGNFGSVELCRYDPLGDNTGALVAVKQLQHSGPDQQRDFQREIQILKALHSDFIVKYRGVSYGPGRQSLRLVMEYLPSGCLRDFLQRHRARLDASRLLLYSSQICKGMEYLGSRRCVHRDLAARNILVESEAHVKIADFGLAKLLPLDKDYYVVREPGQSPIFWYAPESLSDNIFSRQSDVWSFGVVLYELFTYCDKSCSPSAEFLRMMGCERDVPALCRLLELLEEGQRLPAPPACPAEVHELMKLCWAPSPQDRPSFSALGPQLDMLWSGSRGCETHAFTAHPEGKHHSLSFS

JAK3 = experiment: JAK3-mediated cell assay (HT-2/IL-2 assay), STAT5 phosphorylation; assay type: cell-based; details: HT2; STAT5 phosphorylation induced by IL-2 (20 ng/ml) in HT-2 cells, HTRF
Experimental: The inhibitory activities against JAK3 kinase at the cellular level were measured for the compounds prepared in the Examples through in vitro analysis of STAT5 phosphorylation induced by IL-2 stimulation in HT-2 cells. Specifically, STAT5 phosphorylation was analyzed using HTRF® phospho-STAT5 (Tyr694) assay kit (Cisbio, 64AT5PEG), which was purchased from Cisbio. HT-2 cells were cultured for 2 hours in growth factor-free medium. The cultured HT-2 cells were dispensed into 96-well plates by 50 ul so as to be a density of 2.5×10^5 cells/well. The compounds prepared in the previous Examples were prepared so as to be finally a 0.3% DMSO aqueous solution, and HT-2 cells was treated with the compounds for 30 minutes. After the compound treatment, IL-2 was prepared so as to be finally a concentration of 20 ng/ml, and HT-2 cells was treated for 10 minutes. The cells were then disrupted by treating lysis buffers for 30 minutes. The level of STAT5 phosphorylation was measured according to the instructions of HTRF® phospho-STAT5 assay kit, and the inhibitory activity of the compounds according to the invention was calculated. For the analysis of the results of each compound, Microsoft Excel was used, and IC50 values were calculated by SigmaPlot software.

Chain of human BTK (Q06187 whole entry): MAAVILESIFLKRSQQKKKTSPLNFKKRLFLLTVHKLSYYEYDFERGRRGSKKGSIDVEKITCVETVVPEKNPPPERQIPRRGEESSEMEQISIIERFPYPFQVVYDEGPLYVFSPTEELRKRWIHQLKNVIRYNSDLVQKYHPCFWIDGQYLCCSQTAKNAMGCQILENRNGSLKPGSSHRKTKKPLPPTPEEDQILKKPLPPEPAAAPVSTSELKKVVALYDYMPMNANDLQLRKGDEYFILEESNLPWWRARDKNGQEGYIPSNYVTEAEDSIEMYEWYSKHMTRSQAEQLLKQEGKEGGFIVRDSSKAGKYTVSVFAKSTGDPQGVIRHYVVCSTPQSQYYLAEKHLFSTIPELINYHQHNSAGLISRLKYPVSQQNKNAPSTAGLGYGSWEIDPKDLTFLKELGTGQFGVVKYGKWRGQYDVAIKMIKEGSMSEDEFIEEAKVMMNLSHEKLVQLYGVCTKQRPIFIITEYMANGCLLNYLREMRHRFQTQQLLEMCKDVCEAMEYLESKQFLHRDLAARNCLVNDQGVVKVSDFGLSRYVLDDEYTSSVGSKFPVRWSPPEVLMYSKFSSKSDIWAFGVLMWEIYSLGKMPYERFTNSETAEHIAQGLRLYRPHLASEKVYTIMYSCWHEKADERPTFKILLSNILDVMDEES

IC50 (human BTK) | IC50 (human JAK3) | IC50 (JAK3) | Structure (SMILES)
1.6 nM | 0.3 nM |  | C=CC(=O)N1C[C@H](Nc2nc(Nc3cnn(CC(F)F)c3)nc3[nH]cc(Cl)c23)CC[C@@H]1C [Example 7, 1-((2S,5R)-5-((5-chloro-2-((1-(2,2-difluoroethyl)-1H-pyrazol-4-yl)amino)-7H-pyrrolo[2,3-d]pyrimidin-4-yl)amino)-2-methylpiperidin-1-yl)prop-2-en-1-one]
0.9 nM | 5.7 nM |  | C=CC(=O)N1C[C@H](N(C)c2nc(Nc3cnn(CC)c3)nc3[nH]nc(Cl)c23)CC[C@@H]1C [Example 11, 1-((2S,5R)-5-((3-chloro-6-((1-ethyl-1H-pyrazol-4-yl)amino)-1H-pyrazolo[3,4-d]pyrimidin-4-yl)(methyl)amino)-2-methylpiperidin-1-yl)prop-2-en-1-one]
2 nM | 0.3 nM |  | C=CC(=O)N1C[C@H](Nc2nc(Nc3cnn(C4CC4)c3)nc3[nH]cc(Cl)c23)CC[C@@H]1C [Example 9, 1-((2S,5R)-5-((5-chloro-2-((1-cyclopropyl-1H-pyrazol-4-yl)amino)-7H-pyrrolo[2,3-d]pyrimidin-4-yl)amino)-2-methylpiperidin-1-yl)prop-2-en-1-one]

More lines, now with the values behind:

Structure (SMILES) | IC50 (human BTK) | IC50 (human JAK3) | IC50 (JAK3)
C=CC(=O)N1C[C@H](Nc2nc(Nc3cnsc3)nc3[nH]cc(Cl)c23)CC[C@@H]1C [Example 6] | 3.4 nM | 0.6 nM | 
C=CC(=O)N1C[C@H](Nc2nc(Nc3cnn(CC)c3)nc3[nH]ccc23)CC[C@@H]1C [Example 2, 1-((2S,5R)-5-((2-((1-ethyl-1H-pyrazol-4-yl)amino)-7H-pyrrolo[2,3-d]pyrimidin-4-yl)amino)-2-methylpiperidin-1-yl)prop-2-en-1-one] | 1.3 nM | 0.4 nM | 360 nM
C=CC(=O)N1C[C@H](Nc2nc(Nc3cnn(CC(C)C)c3)nc3[nH]ccc23)CC[C@@H]1C [Example 3, 1-((2S,5R)-5-((2-((1-isobutyl-1H-pyrazol-4-yl)amino)-7H-pyrrolo[2,3-d]pyrimidin-4-yl)amino)-2-methylpiperidin-1-yl)prop-2-en-1-one] | 3.5 nM | 1.8 nM | 
C=CC(=O)N1C[C@H](Nc2nc(Nc3cnn(CC)c3)nc3[nH]cc(Cl)c23)CC[C@@H]1C [Example 1, 1-((2S,5R)-5-((5-chloro-2-((1-ethyl-1H-pyrazol-4-yl)amino)-7H-pyrrolo[2,3-d]pyrimidin-4-yl)amino)-2-methylpiperidin-1-yl)prop-2-en-1-one] | 1.2 nM | 0.3 nM | 90.9 nM
C=CC(=O)N1C[C@H](Nc2nc(Nc3cnn(C4CCCC4)c3)nc3[nH]ccc23)CC[C@@H]1C [Example 4, 1-((2S,5R)-5-((2-((1-cyclopentyl-1H-pyrazol-4-yl)amino)-7H-pyrrolo[2,3-d]pyrimidin-4-yl)amino)-2-methylpiperidin-1-yl)prop-2-en-1-one] | 5.4 nM | 2.2 nM | 
C=CC(=O)N1C[C@H](Nc2nc(Nc3cnn(CCNC(=O)OC(C)(C)C)c3)nc3[nH]ccc23)CC[C@@H]1C [Example 5] | 5.3 nM | 1.2 nM | 
